The source of these data is ChEMBL document CHEMBL3108738, “The chemical and biological potential of C ring modified triterpenoids” (Eur J Med Chem, 2014).

The term IC50 denotes the point on the concentration scale where inhibition reaches its midpoint.

A value given as a limit tells only on which side of the number the result lay.

The test system of test [1] is A2780. Nature of the test: Cytotoxicity against human A2780 cells after 96 hrs by SRB assay. It counts as functional, cell-based. Particulars: A2780, 96 h. On the technique in general: In SRB staining, fixed cells bind dye roughly in proportion to their protein.
Test [2] can be described thus: Cytotoxicity against human 518A2 cells after 96 hrs by SRB assay. The class given is functional, cell-based. Particulars: 518A2, 96 h.
For test [3], the system named is A549. Nature of the test: Cytotoxicity against human A549 cells after 96 hrs by SRB assay. The class given is functional, cell-based. Particulars: A549, 96 h.
Test [4] deals with MCF7. Nature of the test: Cytotoxicity against human MCF7 cells after 96 hrs by SRB assay. It counts as functional, cell-based. Particulars: MCF7, 96 h.
Test [5] deals with 8505C. Nature of the test: cells. It counts as functional, cell-based. Particulars: Homo sapiens, 96 h.
Description: Cytotoxicity against human 8505C cells after 96 hrs by SRB assay
Test [6] deals with HT-29. Nature of the test: Cytotoxicity against human HT-29 cells after 96 hrs by SRB assay. It counts as functional, cell-based. The following applies: HT-29, 96 h.
Test [7] concerns NIH3T3. Nature of the test: Cytotoxicity against mouse NIH/3T3 cells after 96 hrs by SRB assay. It counts as ADME, cell-based. Particulars: NIH3T3, 96 h.

`COC(=O)[C@]12CCC(C)(C)C[C@H]1C1=CC[C@@H]3[C@@]4(C)C[C@@H](O)[C@H](O)C(C)(C)[C@@H]4CC[C@@]3(C)[C@]1(C)CC2` [MASLINIC ACID METHYL ESTER]: the IC50 in test [1] was determined as 17.8 µM.

With `CC1(C)CC[C@@]23CC[C@]4(C)[C@@](OC2=O)([C@@H]3C1)[C@@H](O)C[C@@H]1[C@@]2(C)C[C@@H](O)[C@H](O)C(C)(C)[C@@H]2CC[C@]14C`, the IC50 in test [2] was 78.4 µM; in test [1], 39.9 µM; in test [3], greater than 90 µM; in test [4], greater than 90 µM; in test [5], greater than 90 µM; in test [6], 92.8 µM. This compound yielded an IC50 in test [7] of 22.1 µM.

For `COC(=O)[C@]12CCC(C)(C)C[C@H]1[C@H]1C(=O)C[C@@H]3[C@@]4(C)C[C@@H](OC(C)=O)[C@H](OC(C)=O)C(C)(C)[C@@H]4CC[C@@]3(C)[C@]1(C)CC2`, the half-maximal inhibitory concentration (IC50) in test [2] worked out at 9.6 µM; in test [1], 11.6 µM; in test [3], 14.1 µM; in test [4] it was 23.8 µM; in test [5], 10.3 µM; in test [6], 17.6 µM. The IC50 in test [7] is 31.7 µM.

On to `CC1(C)CC[C@]2(C(=O)OCc3ccccc3)CC[C@]3(C)C(=CC[C@@H]4[C@@]5(C)CC[C@H](O)C(C)(C)[C@@H]5CC[C@]43C)[C@@H]2C1`, for which the IC50 in test [2] stood at 28 µM; in test [1], 23 µM; in test [3], 28 µM; in test [4], 15.8 µM; in test [5], 29.1 µM; in test [6], 28.7 µM. In test [7], this compound had a half-maximal inhibitory concentration (IC50) of 22.4 µM.

Consider `COC(=O)[C@]12CC[C@@H](C)[C@H](C)[C@H]1C1=CC[C@@H]3[C@@]4(C)CC[C@H](O)C(C)(C)[C@@H]4CC[C@@]3(C)[C@]1(C)CC2` [METHYL URSOLATE], for which the half-inhibitory concentration (IC50) was 17.7 µM in test [2]; 15.3 µM in test [1]; 20.2 µM in test [3]; 22.2 µM in test [4]; 20.6 µM in test [5]; 25.4 µM in test [6].

`CN[C@@H]1C[C@H]2O[C@@](C)([C@@H]1OC)n1c3ccccc3c3c4c(c5c6ccccc6n2c5c31)C(=O)NC4` [STAUROSPORINE]: the half-inhibitory concentration (IC50) in test [4] was 0.4 µM.

As to `CC1(C)CC[C@@]23CC[C@]4(C)[C@@](OC2=O)([C@@H]3C1)[C@@H](Br)C[C@@H]1[C@@]2(C)C[C@@H](O)[C@H](O)C(C)(C)[C@@H]2CC[C@]14C`, the concentration for half-maximal inhibition (IC50) is 25.9 µM in test [1]; 29.1 µM in test [3]; 36.5 µM in test [5]; greater than 90 µM in test [6]; 43.1 µM in test [7].

Consider `CC1(C)CC[C@]2(C(=O)O)CC[C@]3(C)C(=CC[C@@H]4[C@@]5(C)C[C@@H](O)[C@H](O)C(C)(C)[C@@H]5CC[C@]43C)[C@@H]2C1` [MASLINIC ACID], for which the IC50 came to 16.6 µM in test [4] and 21.4 µM in test [7].

With `CC1(C)CC[C@@]23CC[C@]4(C)[C@@](OC2=O)([C@@H]3C1)[C@@H](Cl)C[C@@H]1[C@@]2(C)C[C@@H](O)[C@H](O)C(C)(C)[C@@H]2CC[C@]14C`, the 50% inhibitory concentration (IC50) in test [1] is 34.2 µM; in test [3], 33.1 µM; in test [5], 18 µM; in test [6], 510 µM; in test [7], greater than 90 µM.

As to `COC(=O)[C@]12CCC(C)(C)C[C@H]1C1=CC[C@@H]3[C@@]4(C)C[C@@H](OC(C)=O)[C@H](OC(C)=O)C(C)(C)[C@@H]4CC[C@@]3(C)[C@]1(C)CC2`, the IC50 in test [2] was 8.6 µM; in test [1] it was 6.8 µM; in test [3] it was 7.8 µM; in test [4], greater than 30 µM; in test [5], 13.3 µM; in test [6], 26.3 µM. For the same compound, half-maximal inhibition in test [7] (IC50) required 30.5 µM.

Regarding `CC1(C)CC[C@@]23CC[C@]4(C)[C@@](OC2=O)([C@@H]3C1)[C@@H](I)C[C@@H]1[C@@]2(C)C[C@@H](O)[C@H](O)C(C)(C)[C@@H]2CC[C@]14C`, the 50% inhibitory concentration (IC50) in test [1] is 31.5 µM; in test [3] it was 34.4 µM; in test [5], 72.1 µM; in test [6] it was greater than 90 µM; in test [7], 80.2 µM.
